Assay in all cases: Minimum inhibitory concentration, broth microdilution
What all share (format): cell-based
Background: Dilution methods test growth across graded concentrations, often in twofold steps.

Assay [1] concerns Pseudomonas aeruginosa NR-50573. From the text:
(§1) Bacterial cell lines and reagents. Escherichia coli ATCC 2452 (NDM-1, isolated in Pakistan) was New Delhi metallo-beta-lactamase (NDM-1) positive, blaNDM positive by PCR, and carbepenem-resistant (Imipenem and Ertapenem). Escherichia coli ATCC 2469 (1001728, isolated from human urine) was New Delhi metallo-beta-lactamase (NDM-1) positive, blaKPC negative and blaNDM positive by PCR, and Carbepenem-resistant (Imipenem and Ertapenem). Klebsiella pneumoniae (NR-41920, isolated in 2008 from human blood culture in Boston, Massachusetts, USA) was Carbapenem-resistant strain, blaKPC-3 positive by PCR, and resistant to amikacin, ampicillin/sulbactam, cefazolin, cefepime, ceftazidime, ceftriaxone, cefuroxime, ciprofloxacin, gentamicin, meropenem, piperacillin/tazobactam, tobramicin and trimethoprim/sulfamethoxazole. Pseudomonas aeruginosa (NR-50573, isolated in early 1970s from the blood of a burn patient at Mercy Hospital in Pittsburgh, Pennsylvania, USA) was resistant to rifampicin and susceptible to meropenem, ofloxacin, ceftazidime, amikacin, and tobramycin. 0.5 McFarland standard was purchased from ThermoFisher scientific (Waltham, MA, USA). Mueller-Hinton broth and tryptone soy agar plates were purchased from Becton, Dickinson and company (Franklin Lakes, New Jersey, USA).
(§2) Antimicrobial activities The minimum inhibitory concentrations (MICs) of the control antibiotics (gentamicin and imipenem), PMB, D-TZP and TZP against Escherichia coli, Klebsiella pneumoniae and Pseudomonas aeruginosa strains were determined by the broth microdilution method, according to guidelines outlined by the Clinical and Laboratory Standards Institute (CLSI)^18. The bacterial stains were grown aerobically overnight on tryptone soy agar plates at 37° C. Afterwards, a bacterial solution equivalent to 0.5 McFarland standard was prepared and diluted in cation-adjusted Mueller-Hinton broth (CAMHB) to achieve a bacterial concentration of ˜5×10^5 CFU/mL. The treatments were added in the first row of the 96-well plates and serially diluted with media containing bacteria. Plates were incubated aerobically at 37° C. for 16-18 hours.

The test system of assay [2] is Escherichia coli ATCC 2469.
Description: as §1, §2

Assay [3] concerns Klebsiella pneumoniae NR-41920.
Description: as §1, §2

Assay [4] concerns Escherichia coli ATCC 2452.
Description: as §1, §2

In brackets after ≈: the same amount, converted by molar mass. Bounds are passed on as bounds.

In general, MIC refers to the least concentration at which growth counts as inhibited. Consider `C[C@@H](O)[C@H]1C(=O)N2C(C(=O)O)=C(SCCN=CN)C[C@H]12` [Imipenem, imipenem], for which the MIC is 1 µg/mL (≈ 3.34 µM) in assay [1] (NR50573), 16 µg/mL (≈ 53.4 µM) in assay [2] (ATCC2469), 8 µg/mL (≈ 26.7 µM) in assay [3] (NR41920) and 16 µg/mL (≈ 53.4 µM) in assay [4] (ATCC2452).

Regarding gentamicin, the “Minimum inhibitory concentration (MIC)” value in assay [1] is 1 µg/mL; in assay [2], over 64 µg/mL; in assay [3] it was 64 µg/mL; in assay [4] it was over 64 µg/mL.

For the origin of these results see patent publication US11865158B2, “Process and composition matter of nanoparticle formulation for systemic treatment of sepsis” (PURDUE RESEARCH FOUNDATION, priority 2019, dated 2024).
